Laboratory results as given in ChEMBL document CHEMBL1201862, “PubChem BioAssay data set” (2004).
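Interpolation was linear, between the two tested concentrations surrounding the appropriate level; five concentrations were tested over 48 hours in 96-well plates. Here, GI50 denotes the concentration required for 50% inhibition of growth.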 Activity calls are given as the source filed them. Rule as the data show it: active = GI50 up to about 1.1 µM and inactive = higher.

How the values were obtained:
Assay in all cases: NCI anticancer screen, dose series, 48 h
786-0 = test system: 786-0
PC-3 = test system: PC-3
HOP-62 = test system: HOP-62
NCI-H23 = test system: NCI-H23
NCI-H522 = test system: NCI-H522
SN12C = test system: SN12C
HOP-92 = test system: HOP-92
COLO 205 = test system: COLO 205
OVCAR-4 = test system: OVCAR-4
CCRF-CEM = test system: CCRF-CEM
MDA-N = test system: MDA-N
K562 = test system: K562
HCT-15 = test system: HCT-15
MDA-MB-435 = test system: MDA-MB-435
MDA-MB-231 = test system: MDA-MB-231
SK-MEL-28 = test system: SK-MEL-28
OVCAR-3 = test system: OVCAR-3
NCI-H460 = test system: NCI-H460
T47D = test system: T47D
HCC 2998 = test system: HCC 2998

Row | SMILES | GI50 (786-0) | GI50 (PC-3) | GI50 (HOP-62) | GI50 (NCI-H23) | GI50 (NCI-H522) | GI50 (SN12C) | GI50 (HOP-92) | GI50 (COLO 205) | GI50 (OVCAR-4) | GI50 (CCRF-CEM) | GI50 (MDA-N) | GI50 (K562) | GI50 (HCT-15) [µM] | GI50 (MDA-MB-435) | GI50 (MDA-MB-231) | GI50 (SK-MEL-28) | GI50 (OVCAR-3) | GI50 (NCI-H460) | GI50 (T47D) | GI50 (HCC 2998)
1 | Cc1cn2c(/C=N/NC(=N)N)c(-c3ccc(Cl)c([N+](=O)[O-])c3)nc2s1 | 0.984 µM (active) | 1.58 µM (inactive) | 1.54 µM (inactive) | 1.43 µM (inactive) | 0.16 µM (active) | 0.705 µM (active) | 1.46 µM (inactive) | 0.661 µM (active) | 1.55 µM (inactive) | 0.267 µM (active) | 0.857 µM (active) | 0.257 µM (active) | 1.7 | 0.611 µM (active) | 1.13 µM (inactive) | 1.71 µM (inactive) | 1.13 µM (inactive) | 1.42 µM (inactive) | – | –
2 | N=C(N)SCc1nc(-c2ccc(Cl)cc2)no1 | 14.3 µM (inactive) | 14 µM (inactive) | 27.3 µM (inactive) | 34.4 µM (inactive) | 10.6 µM (inactive) | 17.8 µM (inactive) | 29.1 µM (inactive) | 14.6 µM (inactive) | 14.6 µM (inactive) | 3.84 µM (inactive) | – | 5.71 µM (inactive) | 11.2 | 12.2 µM (inactive) | 12.6 µM (inactive) | 16.9 µM (inactive) | 11.9 µM (inactive) | 23.8 µM (inactive) | 11.3 µM (inactive) | –
3 | CC1(c2ccc(Cl)cc2)C=C(c2ccc(Cl)cc2)C(C#N)=C(C(C#N)C#N)N1.CNC (configuration not stated) | 13.8 µM (inactive) | 16.6 µM (inactive) | 16.5 µM (inactive) | 15.3 µM (inactive) | – | 18.3 µM (inactive) | – | 14.5 µM (inactive) | 15.1 µM (inactive) | 5.02 µM (inactive) | 17.3 µM (inactive) | 19.2 µM (inactive) | 15.1 | 17.5 µM (inactive) | 24.9 µM (inactive) | 24.1 µM (inactive) | 8.75 µM (inactive) | 20.4 µM (inactive) | 14.2 µM (inactive) | 16.3 µM (inactive)
4 | N#CC1C(=O)NC(=O)C(C#N)C1c1ccc(Cl)c(Cl)c1 (configuration not stated) | 20.1 µM (inactive) | 28.2 µM (inactive) | 20.4 µM (inactive) | 21.4 µM (inactive) | 15.7 µM (inactive) | < 0.01 µM (active) | 37.4 µM (inactive) | > 100 µM (inactive) | 81.8 µM (inactive) | 13.6 µM (inactive) | – | 28.8 µM (inactive) | 21.5 | 22.7 µM (inactive) | < 0.01 µM (active) | 30.6 µM (inactive) | 24.2 µM (inactive) | 30.1 µM (inactive) | 33.3 µM (inactive) | –
5 | CC(=O)NNc1nc(C)c(C(=O)NNC(=O)C(=O)Nc2ccc(C)c(C)c2)s1 | > 100 µM (inactive) | – | > 100 µM (inactive) | > 100 µM (inactive) | 18.5 µM (inactive) | > 100 µM (inactive) | > 100 µM (inactive) | > 100 µM (inactive) | 72.9 µM (inactive) | 42.2 µM (inactive) | – | 52.6 µM (inactive) | 78.9 | – | – | > 100 µM (inactive) | 21.3 µM (inactive) | 95.3 µM (inactive) | – | > 100 µM (inactive)
6 | NC(=O)Cn1c(=O)oc2cc(C(=O)CN3CCOCC3)ccc21 | > 100 µM (inactive) | > 100 µM (inactive) | > 100 µM (inactive) | – | – | > 100 µM (inactive) | – | > 100 µM (inactive) | – | > 100 µM (inactive) | > 100 µM (inactive) | > 100 µM (inactive) | – | > 100 µM (inactive) | > 100 µM (inactive) | > 100 µM (inactive) | > 100 µM (inactive) | – | – | –
7 | O=C1CCC2(c3ccc(Cl)cc3)Nc3ncncc3N12 (configuration not stated) | > 10 µM (inactive) | > 10 µM (inactive) | – | > 10 µM (inactive) | > 10 µM (inactive) | > 10 µM (inactive) | > 10 µM (inactive) | – | > 10 µM (inactive) | > 10 µM (inactive) | > 10 µM (inactive) | > 10 µM (inactive) | > 10 | > 10 µM (inactive) | 0.001 µM (active) | – | > 10 µM (inactive) | > 10 µM (inactive) | – | > 10 µM (inactive)
8 | COc1ccc(CC2C(=O)NC(C)C(=O)N(C)C3C(=O)N(C)C(Cc4ccc(O)c(c4)Oc4ccc(cc4)C3O)C(=O)NC(C)C(=O)NC(C)C(=O)N2C)cc1.COc1ccc(CC2C(=O)NC(C)C(=O)N(C)C3Cc4ccc(cc4)Oc4cc(ccc4O)CC(C(=O)NC(C)C(=O)NC(C)C(=O)N2C)N(C)C3=O)cc1 (configuration not stated) | 0.00771 µM (active) | 0.00601 µM (active) | 0.0552 µM (active) | 0.00552 µM (active) | 0.01 µM (active) | – | 0.00364 µM (active) | 0.03 µM (active) | 0.0127 µM (active) | 0.00177 µM (active) | – | 0.01 µM (active) | 0.483 | 0.004 µM (active) | 0.0115 µM (active) | 0.00344 µM (active) | 0.01 µM (active) | 0.0413 µM (active) | 0.00446 µM (active) | 0.00619 µM (active)
9 | COC(=O)C1=C(C(=O)OC)SC2(S1)C(C(=O)OC)=C(C(=O)OC)Sc1c2ss/c1=N/C(C)(C)C | 1.31 µM (inactive) | 1.26 µM (inactive) | 3.72 µM (inactive) | 2.23 µM (inactive) | 0.555 µM (active) | 1.22 µM (inactive) | 1.3 µM (inactive) | 1.45 µM (inactive) | 1.79 µM (inactive) | 0.345 µM (active) | – | 2.21 µM (inactive) | 0.622 | 1.55 µM (inactive) | 1.64 µM (inactive) | 2.07 µM (inactive) | 1.67 µM (inactive) | 0.533 µM (active) | 1.41 µM (inactive) | 1.08 µM (active)
10 | C=C1c2nc3ccccc3n2C=C(c2ccc(OC)cc2)N1c1ccc(OC)cc1 | 5.4 µM (inactive) | 19 µM (inactive) | – | 21.1 µM (inactive) | 10.7 µM (inactive) | 17.8 µM (inactive) | 15.6 µM (inactive) | 83.4 µM (inactive) | 7.78 µM (inactive) | > 100 µM (inactive) | 22.1 µM (inactive) | > 100 µM (inactive) | 25.5 | 12.1 µM (inactive) | 20 µM (inactive) | – | 8.18 µM (inactive) | 13.8 µM (inactive) | – | 20 µM (inactive)
11 | CC(C)OP(=O)(c1ccccc1)c1ccc2c(c1)OCCOCCOCCOCCO2 (configuration not stated) | > 100 µM (inactive) | > 100 µM (inactive) | > 100 µM (inactive) | > 100 µM (inactive) | 84.7 µM (inactive) | > 100 µM (inactive) | – | > 100 µM (inactive) | – | > 100 µM (inactive) | > 100 µM (inactive) | > 100 µM (inactive) | > 100 | > 100 µM (inactive) | > 100 µM (inactive) | > 100 µM (inactive) | – | > 100 µM (inactive) | > 100 µM (inactive) | > 100 µM (inactive)
12 | Cc1nc(OCc2ccccc2)c2ncn(CCO)c2n1 | > 100 µM (inactive) | > 100 µM (inactive) | – | > 100 µM (inactive) | > 100 µM (inactive) | > 100 µM (inactive) | 51.8 µM (inactive) | > 100 µM (inactive) | > 100 µM (inactive) | > 100 µM (inactive) | > 100 µM (inactive) | – | – | > 100 µM (inactive) | > 100 µM (inactive) | > 100 µM (inactive) | > 100 µM (inactive) | > 100 µM (inactive) | – | –
13 | O=C(Nc1ccccc1)O/N=C1/CCCC/C1=C\c1ccccc1 | 16.7 µM (inactive) | – | 21.9 µM (inactive) | 26 µM (inactive) | 16.4 µM (inactive) | 16.3 µM (inactive) | 22.9 µM (inactive) | 14.5 µM (inactive) | 14.8 µM (inactive) | 10.7 µM (inactive) | – | 10 µM (inactive) | 11.3 | – | – | 17.6 µM (inactive) | 15.2 µM (inactive) | 15.1 µM (inactive) | – | 20.6 µM (inactive)
14 | Nc1ccn(C2CC3OCC3O2)c(=O)n1 (configuration not stated) | > 100 µM (inactive) | > 100 µM (inactive) | > 100 µM (inactive) | > 100 µM (inactive) | > 100 µM (inactive) | > 100 µM (inactive) | – | > 100 µM (inactive) | > 100 µM (inactive) | > 100 µM (inactive) | > 100 µM (inactive) | > 100 µM (inactive) | > 100 | > 100 µM (inactive) | > 100 µM (inactive) | > 100 µM (inactive) | > 100 µM (inactive) | > 100 µM (inactive) | > 100 µM (inactive) | –
15 | CSCC[C@H]1C(=O)N=C(N)N1C(=O)OCc1ccccc1 | 26.2 µM (inactive) | 50.4 µM (inactive) | > 100 µM (inactive) | 17.1 µM (inactive) | 19.7 µM (inactive) | 31 µM (inactive) | – | 18.7 µM (inactive) | 46.5 µM (inactive) | – | 28.9 µM (inactive) | 21.8 µM (inactive) | 28.6 | 34 µM (inactive) | 66.5 µM (inactive) | 24.2 µM (inactive) | 38.7 µM (inactive) | 41 µM (inactive) | – | 95.9 µM (inactive)
16 | CC1(C)CC(O)CC(C)(C)N1O [TEMPOL HYDROXYLAMINE] | > 100 µM (inactive) | > 100 µM (inactive) | > 100 µM (inactive) | – | – | > 100 µM (inactive) | – | > 100 µM (inactive) | – | > 100 µM (inactive) | > 100 µM (inactive) | > 100 µM (inactive) | > 100 | > 100 µM (inactive) | > 100 µM (inactive) | > 100 µM (inactive) | 68.1 µM (inactive) | > 100 µM (inactive) | > 100 µM (inactive) | > 100 µM (inactive)
